For two compounds, Km and stoichiometry N results are on record in paper PMC4976375, “Structure of a Highly Active Cephalopod S-crystallin Mutant: New Molecular Evidence for Evolution from an Active Enzyme into Lens-Refractive Protein” (Scientific Reports, 2016).

For assay [1], the system named is T1, Octopus GST-σ.
T1 construct: gene GST-sigma
The experiment in a line: GSH-CDNB conjugation, absorbance […] nm. Format: biochemical, Octopus vulgaris. Particulars: GSH 10 mM; apparent; read-out: Km,CDNB (mM) ^c.

In assay [2] the target is Wild-type S-crystallin (OctS4) of Octopus vulgaris (Octopus vulgaris). Kind of assay: AUC; sedimentation velocity, 20 °C, 42,000 rpm, protein 0.025–1.0 mg/ml in 50 mM phosphate, pH 6.5; continuous c(M) distribution by SEDFIT.

Consider `O=[N+]([O-])c1ccc(Cl)c([N+](=O)[O-])c1` [CDNB, 1-chloro-2,4-dinitrobenzene], for which, in assay [1], the Km amounted to 0.47 ± 0.04 mM.
In assay [2], “Wild-type S-crystallin (OctS4) of Octopus vulgaris (natural protein)” returned a stoichiometry N of 2.
